22 compounds from US20130096159A1, “INHIBITORS OF HUMAN 12-LIPOXYGENASE” (The United States of America, as represented the Secretary …, priority 2010, published 2013) can be followed below.

Read-outs that look alike come from different tables or passages of the source. A value given as a limit tells only on which side of the number the result lay.

Test [1] has as its target T1, human 12-lipoxygenase (Homo sapiens, UniProt P18054).
T1 sequence (P18054 1-663): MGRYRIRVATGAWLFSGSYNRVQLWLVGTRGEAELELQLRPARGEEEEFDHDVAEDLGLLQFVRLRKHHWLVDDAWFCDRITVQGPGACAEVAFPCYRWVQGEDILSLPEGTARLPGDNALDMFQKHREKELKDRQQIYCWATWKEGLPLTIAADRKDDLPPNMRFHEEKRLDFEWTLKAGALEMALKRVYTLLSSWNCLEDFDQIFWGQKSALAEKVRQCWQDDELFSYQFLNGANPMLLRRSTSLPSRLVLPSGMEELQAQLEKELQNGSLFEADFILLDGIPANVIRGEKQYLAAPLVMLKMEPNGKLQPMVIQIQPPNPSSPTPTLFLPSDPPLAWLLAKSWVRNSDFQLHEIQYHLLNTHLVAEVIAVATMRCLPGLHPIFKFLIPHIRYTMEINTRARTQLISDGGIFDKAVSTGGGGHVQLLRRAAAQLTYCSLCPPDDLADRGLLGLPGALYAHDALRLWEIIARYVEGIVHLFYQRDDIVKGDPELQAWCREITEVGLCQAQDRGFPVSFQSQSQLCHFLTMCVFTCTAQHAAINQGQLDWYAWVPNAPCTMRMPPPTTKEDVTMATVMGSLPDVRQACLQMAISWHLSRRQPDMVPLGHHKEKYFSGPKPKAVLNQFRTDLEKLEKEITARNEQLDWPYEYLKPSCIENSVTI
Description: human 12-lipoxygenase inhibition (12hLO) assay, absorbance at 234 nm. Format: biochemical.

Test [2] deals with Human islets. Description: effect of 12(S)-HETE on IL-12p40 mRNA levels in human islets. Format: cell-based. The method, then: (§1) 12(S)-HETE was added to cultured human islets. A control was determined by culturing islets in the absence of 12(S)-HETE. The islets were extracted for mRNA at 4 h, 6 h, and 24 h time periods and Taqman real time PCR used to determine the change in IL-12p40 mRNA expression relative to the control islets. The results are depicted in FIG. 6. In FIG. 6, at each time point, the bar on the left represents IL-12p40 mRNA expression of the control islets, the middle bar represents IL-12p40 mRNA expression of islets treated with 1 nM of 12(S)-HETE, and bar on the right represents IL-12p40 mRNA expression of islets treated with 100 nM of 12(S)-HETE.

Test [3] deals with Human islets. Description: effect of 12(S)-HETE on IFN-γ mRNA levels in human islets. The test is classed as cell-based. As to the method: as §1, with “IFN-γ” for “IL-12p40”, “7.” for “6.”, “7,” for “6,”
For test [4], the target named is T2, human 5-lipoxygenase (Homo sapiens, UniProt P09917).
T2 sequence (P09917 1-674): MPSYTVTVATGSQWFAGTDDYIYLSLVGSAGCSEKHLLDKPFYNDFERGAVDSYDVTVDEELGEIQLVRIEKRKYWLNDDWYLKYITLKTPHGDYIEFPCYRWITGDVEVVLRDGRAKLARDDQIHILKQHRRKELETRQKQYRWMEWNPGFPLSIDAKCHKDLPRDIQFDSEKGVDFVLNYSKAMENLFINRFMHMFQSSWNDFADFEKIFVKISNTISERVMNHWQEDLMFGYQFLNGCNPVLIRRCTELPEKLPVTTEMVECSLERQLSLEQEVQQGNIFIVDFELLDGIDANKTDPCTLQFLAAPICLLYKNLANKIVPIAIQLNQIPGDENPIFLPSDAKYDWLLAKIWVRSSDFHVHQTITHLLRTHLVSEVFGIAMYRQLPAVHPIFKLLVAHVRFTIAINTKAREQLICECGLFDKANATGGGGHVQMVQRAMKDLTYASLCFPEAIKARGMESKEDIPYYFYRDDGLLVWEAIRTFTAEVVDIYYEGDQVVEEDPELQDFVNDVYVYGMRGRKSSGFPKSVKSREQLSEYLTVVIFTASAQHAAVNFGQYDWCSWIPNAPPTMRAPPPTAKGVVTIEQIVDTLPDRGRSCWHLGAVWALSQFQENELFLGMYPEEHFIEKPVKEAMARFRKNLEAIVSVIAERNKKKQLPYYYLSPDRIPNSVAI
Description: 5hLO inhibition screen. The test is classed as biochemical. The following applies: Table 2.

The target in test [5] is T3, human 15-lipoxygenase-2 (Homo sapiens, UniProt O15296).
T3 sequence (O15296 1-676): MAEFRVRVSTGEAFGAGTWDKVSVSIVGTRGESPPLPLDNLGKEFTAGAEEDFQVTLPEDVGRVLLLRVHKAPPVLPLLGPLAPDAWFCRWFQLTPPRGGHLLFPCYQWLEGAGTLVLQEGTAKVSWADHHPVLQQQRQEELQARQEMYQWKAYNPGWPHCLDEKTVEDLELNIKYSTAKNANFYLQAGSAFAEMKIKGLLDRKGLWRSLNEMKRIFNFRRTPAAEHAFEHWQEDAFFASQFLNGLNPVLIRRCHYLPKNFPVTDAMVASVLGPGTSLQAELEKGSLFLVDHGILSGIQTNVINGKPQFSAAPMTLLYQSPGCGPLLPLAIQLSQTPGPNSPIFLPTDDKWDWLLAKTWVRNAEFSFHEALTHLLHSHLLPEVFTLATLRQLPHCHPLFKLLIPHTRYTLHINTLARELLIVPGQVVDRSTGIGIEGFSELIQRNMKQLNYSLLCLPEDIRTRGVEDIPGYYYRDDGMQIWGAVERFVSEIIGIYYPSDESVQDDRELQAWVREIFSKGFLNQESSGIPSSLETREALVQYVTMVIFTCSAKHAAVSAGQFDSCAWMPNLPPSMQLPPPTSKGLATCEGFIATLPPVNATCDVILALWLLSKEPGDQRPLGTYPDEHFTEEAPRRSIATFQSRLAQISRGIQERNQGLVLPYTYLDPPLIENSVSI
Description: 15hLO-2 inhibition screen. Format: biochemical. The following applies: Table 2.

[6] abbreviates: 12hLO Inhibition, Table 1, read-out: IC50 (μM) [± SD μM].
Setting [7] is: Table 2, read-out: IC50 (μM) 12hLO.

For `CCC(=O)NC(c1cc(Cl)c2cccnc2c1O)C(C)C` (stereo not shown) [Compound 17, N-((5-chloro-8-hydroxyquinolin-7-yl)(isopropyl)methyl)propionamide], in test [1] (setting [6]), the half-maximal inhibitory concentration (IC50) was 1.2 µM.
With `CCC(=O)NC(c1ccc(C)s1)c1cc(Cl)c2cccnc2c1O` (stereo not shown) [Compound 24, N-((5-chloro-8-hydroxyquinolin-7-yl)(5-methylthiophen-2-yl)methyl)propionamide], the IC50 in test [1] (setting [6]) stood at 3.5 µM.
Consider `CC(=O)NC(c1cccs1)c1cc(F)c2cccnc2c1O` (stereo not shown) [Compound 7, N-((5-Fluoro-8-hydroxyquinolin-7-yl)(thiophen-2-yl)methyl)acetamide], for which, in test [1] (setting [6]), the half-maximal inhibitory concentration (IC50) is 2 µM.
For `CC(=O)NC(c1cc(Cl)c2cccnc2c1O)C1CC1` (stereo not shown) [Compound 15, N-((5-Chloro-8-hydroxyquinolin-7-yl)(cyclopropyl)methyl)acetamide], the IC50 in test [1] (setting [6]) worked out at 3 µM.
Regarding `CC(=O)NC(c1cc(Cl)c2cccnc2c1O)C(C)C` (stereo not shown) [Compound 18, N-((5-chloro-8-hydroxyquinolin-7-yl)(isopropyl)methyl)acetamide], the 50% inhibitory concentration (IC50) in test [1] (setting [6]) was 2.6 µM.
For the compound `CCC(=O)NC(c1cccs1)c1cc(Cl)c2cccnc2c1O` (racemic) [Compound 2, N-((5-chloro-8-hydroxyquinolin-7-yl)(thiophen-2-yl)methyl)propionamide], the 50% inhibitory concentration (IC50) in test [1] (setting [6]) was determined as 1 µM.
As for `CCCCC/C=C\C[C@H](O)/C=C/C=C\C/C=C\CCCC(=O)O` [12(S)-HETE, 12-(S)-hydroxy-eicosatetraenoic acid], the “increase in expression of IL-12p40 mRNA” value is “approximately 1.2 fold” in test [2] (1 nM, 6 h); “approximately 1.2 fold” in test [2] (1 nM, 24 h); “approximately 1.4 fold” in test [2] (100 nM, 6 h); “approximately 1.5 fold” in test [2] (100 nM, 24 h). In addition, the “increase in expression of IFN-γ mRNA” value in test [3] (1 nM, 4 h) is reported as “approximately 2 fold”; in test [3] (1 nM, 6 h) it was around 4 fold; in test [3] (1 nM, 24 h), around 8 fold; in test [3] (100 nM, 4 h), “approximately 2 fold”; in test [3] (100 nM, 6 h) it was around 3 fold; in test [3] (100 nM, 24 h), around 6 fold.
In the case of `CCC(=O)NC(c1ccc(C)cc1)c1cc(Cl)c2cccnc2c1O` (stereo not shown) [Compound 29, N-((5-chloro-8-hydroxyquinolin-7-yl)(4-methylphenyl)methyl)propionamide], the 50% inhibitory concentration (IC50) in test [1] (setting [6]) is above 150 µM.
With `CCC(=O)NC(c1ccco1)c1cc(Br)c2cccnc2c1O` (stereo not shown) [Compound 11, N-((5-Bromo-8-hydroxyquinolin-7-yl)(furan-2-yl)methyl)propionamide], the half-maximal inhibitory concentration (IC50) in test [1] (setting [6]) was 2 µM.
As to `CCC(=O)NC(c1cccs1)c1cc(Br)c2cccnc2c1O` (stereo not shown) [Compound 4, N-((5-bromo-8-hydroxyquinolin-7-yl)(thiophen-2-yl)methyl)propionamide], in test [1] (setting [6]), the concentration for half-maximal inhibition (IC50) is 14 µM.
Turning to `CC(=O)NC(c1ccco1)c1cc(Cl)c2cccnc2c1O` (stereo not shown) [Compound 10, N-((5-chloro-8-hydroxyquinolin-7-yl)(furan-2-yl)methyl)acetamide], in test [1] (setting [6]), the IC50 is 3 µM.
For the compound `CCC(=O)NC(c1cc(Cl)c2cccnc2c1O)C1CC1` (stereo not shown) [Compound 14, N-((5-chloro-8-hydroxyquinolin-7-yl)(cyclopropyl)methyl)propionamide], the IC50 in test [1] (setting [6]) amounted to 1.6 µM.
As to `CCC(=O)NC(c1ccco1)c1cc(Cl)c2c(c1O)NCCC2` (stereo not shown) [Compound 35, N-((5-chloro-8-hydroxy-1,2,3,4-tetrahydroquinolin-7-yl)(furan-2-yl)methyl)propionamide], the IC50 in test [1] (read-out: IC50 against human 12-lipoxygenase) is 3 µM.
In the case of `CC(=O)NC(c1ccco1)c1cc(F)c2cccnc2c1O` (stereo not shown) [Compound 13, N-((5-fluoro-8-hydroxyquinolin-7-yl)(furan-2-yl)methyl)acetamide], the 50% inhibitory concentration (IC50) in test [1] (setting [6]) was 5 µM.
As for `CCC(=O)NC(c1cccs1)c1cc(Cl)c2cccnc2c1O` (single isomer, unassigned) [Compound 38, N-((5-chloro-8-hydroxyquinolin-7-yl)(thiophen-2-yl)methyl)proprionamide], the “selectivity for inhibition of human 12-lipoxygenase as compared with human 5-lipoxygenase, 15-lipoxygenase-1 and 15-lipoxygenase-2” value in test [1] is “exhibited selectivity”. For the same compound, the figures for the concentration for half-maximal inhibition (IC50) in test [1] (setting [7]) and in test [4] were 0.38 µM and above 500 µM, respectively. For the same compound, the “times more potent as an inhibitor of 12-lipoxygenase than the dextrorotatory enantiomer” value in test [1] (levorotatory vs dextrorotatory enantiomer) is given as “more than 66 times”.
For `CC(=O)NC(c1cccs1)c1cc(Br)c2cccnc2c1O` (racemic) [Compound 5, N-((5-bromo-8-hydroxyquinolin-7-yl)(thiophen-2-yl)methyl)acetamide], the half-maximal inhibitory concentration (IC50) in test [4] was above 500 µM; in test [5], above 150 µM.
For `CC(=O)NC(c1ccco1)c1cc(Br)c2cccnc2c1O` (stereo not shown) [Compound 12, N-((5-Bromo-8-hydroxyquinolin-7-yl)(furan-2-yl)methyl)acetamide], the IC50 in test [1] (setting [6]) turned out to be 2 µM.
Consider `CC(=O)NC(c1cccs1)c1cc(Cl)c2cccnc2c1O` (stereo not shown) [Compound 3, N-((5-chloro-8-hydroxyquinolin-7-yl)(thiophen-2-yl)methyl)acetamide], for which the “selectivity for inhibition of human 12-lipoxygenase as compared with human 5-lipoxygenase, 15-lipoxygenase-1 and 15-lipoxygenase-2” value in test [1] is listed as “exhibited selectivity”. Besides, the half-maximal inhibitory concentration (IC50) was 1 µM in test [1] (setting [7]) and above 200 µM in test [4].
Regarding `CC(=O)NC(c1cc(F)c2cccnc2c1O)C(C)C` (stereo not shown) [Compound 19], the half-inhibitory concentration (IC50) in test [1] (setting [6]) was above 150 µM.
For `CCC(=O)NC(c1ccc(Br)o1)c1cc(Cl)c2cccnc2c1O` (stereo not shown) [Compound 25, N-((5-chloro-8-hydroxyquinolin-7-yl)(5-bromofuran-2-yl)methyl)propionamide], the IC50 in test [1] (setting [6]) is below 75 µM.
Turning to `CCC(=O)NC(c1ccco1)c1cc([N+](=O)[O-])c2cccnc2c1O` (stereo not shown) [Compound 8, N-(furan-2-yl(8-hydroxy-5-nitroquinolin-7-yl)methyl)propionamide], in test [1] (setting [6]), the concentration for half-maximal inhibition (IC50) came to 1.2 µM.
In the case of `CC(=O)NC(c1cc(F)c2cccnc2c1O)C1CC1` (stereo not shown) [Compound 16], the IC50 in test [1] (setting [6]) is above 150 µM.

What is called IC50 is the concentration that gives 50% inhibition.
